Assay results from patent publication US20220356398A1, “Composition and Method for Improving the Water Transport Characteristics of Hydrophobic Soils” (Ethox Chemicals, LLC, priority 2021, published 2022).

Legend:
[1] = Compatibility with the soil treatment polymers; type: physicochemical
Source text: (§1) Soil treatment polymers are relatively non-polar organic materials with limited water solubility.

[2] = Humic acid removal (detergency)
Source text: as §1

monophosphate of POE (6) decyl alcohol
compatibility with the soil treatment polymers [1]: good compatibility
humic acid removal properties [2]: good humic acid removal properties
